Assay results as given in ChEMBL document CHEMBL1143566, “Discovery of a potent and selective inhibitor of cyclin-dependent kinase 4/6” (J Med Chem, 2005).
Blank lines part the entries; values can stand above or below the compound they belong to.

Tests used:
[1] = Inhibition of Cyclin dependent kinase 2-cyclinA
MDA-MB-435 [2] = assay: Inhibitory concentration was measured by the incorporation of [14C]-thymidine in (human breast carcinoma) MDA-MB-435 cell line; format: functional, cell-based
[3] = target: T1, Cyclin-dependent kinase 4/cyclin D (Homo sapiens, UniProt P11802)
Description: Inhibition of Cyclin-dependent kinase 4-cyclinD

MDA-MB-435 [4] = assay: Inhibitory concentration was measured by the incorporation of [14C]thymidine in (human breast carcinoma) MDA-MB-435; format: functional, cell-based
[5] = target: Fibroblast growth factor receptor (Homo sapiens, UniProt P22607+P11362+P22455+P21802); assay: Inhibition of Fibroblast growth factor receptor; format: protein assay
MDA-MB-468 [6] = assay: Inhibitory concentration was measured by the incorporation of [14C]thymidine in (human breast carcinoma) MDA-MB-468 cell line; format: functional, cell-based
[7] = target: T1, Cyclin-dependent kinase 4/cyclin D; assay: Inhibition of [gamma-32P]-ATP binding to Cyclin dependant kinase 4-cyclinD; format: protein-complex assay
[8] = target: Cyclin-dependent kinase 2/cyclin A (Homo sapiens, UniProt P24941)
Description: Inhibition of Cyclin dependent kinase 2-cyclin A

[9] = target: Cyclin-dependent kinase 2/cyclin E (Homo sapiens, UniProt P24941); assay: Inhibition of Cyclin dependent kinase 2-cyclin E; format: protein-complex assay
[10] = Inhibition of PDGF receptor
MDA-MB-435 [11] = assay: In vitro inhibitory concentration was measured by the incorporation of [14C]thymidine in (human breast carcinoma) MDA-MB-435 cell line; format: functional, cell-based
MDA-MB-468 [12] = assay: In vitro inhibitory concentration was measured by the incorporation of [14C]thymidine in (human breast carcinoma) MDA-MB-468 cell line; format: functional, cell-based

- IC50 [1]: 12 nM
SMILES: O=c1ccc2cnc(Nc3ccccc3)nc2n1C1CCCC1

- IC50 (MDA-MB-435 [2]): 1100 nM
SMILES: O=c1c(F)cc2cnc(Nc3ccc(N4CCNCC4)cn3)nc2n1C1CCCC1

- IC50 (MDA-MB-435 [2]): 290 nM
SMILES: Cc1cc2cnc(Nc3ccc(N4CCNCC4)cn3)nc2n(C2CCCC2)c1=O

SMILES: CC(C)n1c(=O)ccc2cnc(Nc3ccc(N4CCNCC4)cn3)nc21
- IC50 [3]: > 5000 nM

- IC50 (MDA-MB-435 [4]): 1930 nM
SMILES: CC(=O)c1c(C)c2cnc(Nc3ccc(N4CCCCC4)cn3)nc2n(C2CCCC2)c1=O

SMILES: O=c1c(Br)cc2cnc(Nc3ccc(N4CCNCC4)cc3)nc2n1C1CCCC1
- IC50 (MDA-MB-435 [2]): 20 nM
- IC50 ([5]; read-out: IC50): 80 nM
- IC50 (MDA-MB-468 [6]): 600 nM

- IC50 (MDA-MB-435 [2]): 340 nM
SMILES: CC(=O)c1c(C)c2cnc(Nc3ccc(N4CCC(N)C4)cn3)nc2n(C2CCCC2)c1=O (stereo unspecified)

- IC50 (MDA-MB-435 [4]): 1400 nM
SMILES: Cc1c(Br)c(=O)n(C2CCCC2)c2nc(Nc3ccc(N4CCC(O)CC4)cn3)ncc12

- IC50 (MDA-MB-435 [2]): 2150 nM
SMILES: COCCOCc1cc2cnc(Nc3ccc(N4CCNCC4)cn3)nc2n(C2CCCC2)c1=O

- IC50 (MDA-MB-435 [4]): 570 nM
SMILES: CC(=O)c1c(C)c2cnc(Nc3ccc(N4CC(C)NC(C)C4)cn3)nc2n(C2CCCC2)c1=O (stereo unspecified)

- IC50 [7]: 37 nM
SMILES: CCOCCOc1cc2cnc(Nc3ccc(N4CCNCC4)cn3)nc2n(C2CCCC2)c1=O

SMILES: Cc1c(Br)c(=O)n(C2CCCC2)c2nc(Nc3ccccn3)ncc12
- IC50 [3]: > 5000 nM

- IC50 (MDA-MB-435 [2]): 1000 nM
SMILES: CCOCc1cc2cnc(Nc3ccc(N4CCNCC4)cn3)nc2n(C2CCCC2)c1=O

- IC50 (MDA-MB-435 [4]): 2770 nM
SMILES: CC(=O)c1cc2cnc(Nc3ccc(N4CCNCC4)cn3)nc2n(C2CCCC2)c1=O

- IC50 (MDA-MB-435 [2]): 325 nM
SMILES: CC(=O)c1c(C)c2cnc(Nc3ccc(N4CCN(C)CC4)cn3)nc2n(C2CCCC2)c1=O

- IC50 (MDA-MB-435 [2]): 1080 nM
- IC50 [3]: 22 nM
- IC50 [8]: > 5000 nM
SMILES: CCc1cc2cnc(Nc3ccc(N4CCNCC4)cn3)nc2n(C2CCCC2)c1=O

- IC50 (MDA-MB-435 [2]): 330 nM
- IC50 [3]: 13 nM
- IC50 [8]: 3800 nM
SMILES: COCc1cc2cnc(Nc3ccc(N4CCNCC4)cn3)nc2n(C2CCCC2)c1=O

- IC50 (MDA-MB-435 [4]): 570 nM
SMILES: Cc1c(Br)c(=O)n(C2CCCC2)c2nc(Nc3ccc(N4CC(C)NC(C)C4)cn3)ncc12 (stereo unspecified)

- IC50 (MDA-MB-435 [4]): 220 nM
SMILES: CC(=O)c1c(C)c2cnc(Nc3ccc(N4CCOCC4)cn3)nc2n(C2CCCC2)c1=O

- IC50 (MDA-MB-435 [2]): 190 nM
- IC50 [3]: 19 nM
- IC50 [8]: > 5000 nM
SMILES: Nc1cc2cnc(Nc3ccc(N4CCNCC4)cn3)nc2n(C2CCCC2)c1=O

- IC50 (MDA-MB-435 [2]): 90 nM
- IC50 [5]: > 5000 nM
- IC50 (MDA-MB-468 [6]): > 3000 nM
- IC50 [9]: > 5000 nM
- IC50 [10]: > 5000 nM
- IC50 [8]: > 5000 nM
SMILES: O=c1c(Br)cc2cnc(Nc3ccc(N4CCNCC4)cn3)nc2n1C1CCCC1

- IC50 (MDA-MB-435 [2]): 70 nM
SMILES: CC(=O)c1c(C)c2cnc(Nc3ccc(N4CCCNCC4)cn3)nc2n(C2CCCC2)c1=O

- IC50 (MDA-MB-435 [2]): 200 nM
SMILES: CC(=O)c1c(C)c2cnc(Nc3ccc(N4CCC(O)CC4)cn3)nc2n(C2CCCC2)c1=O

- IC50 (MDA-MB-435 [2]): 160 nM
- IC50 (MDA-MB-468 [6]): > 3000 nM
SMILES: CC(=O)c1c(C)c2cnc(Nc3ccc(N4CCNCC4)cn3)nc2n(C2CCCC2)c1=O [PALBOCICLIB]

- IC50 [3]: 49 nM
SMILES: CCOC(=O)c1c(C)c2cnc(Nc3ccc(N4CCNCC4)cn3)nc2n(C2CCCC2)c1=O

- IC50 [3]: 51 nM
- IC50 [8]: 2050 nM
SMILES: COCCN(CCOC)c1ccc(Nc2ncc3c(C)c(C(C)=O)c(=O)n(C4CCCC4)c3n2)nc1

- IC50 (MDA-MB-435 [2]): 560 nM
SMILES: O=c1c(CO)cc2cnc(Nc3ccc(N4CCNCC4)cn3)nc2n1C1CCCC1

- IC50 (MDA-MB-435 [4]): 420 nM
SMILES: CC(=O)c1c(C)c2cnc(Nc3ccc(N4CCNC(C)(C)C4)cn3)nc2n(C2CCCC2)c1=O

SMILES: Cc1c(Br)c(=O)n(C2CCCC2)c2nc(Nc3ccc(N4CCCNCC4)cn3)ncc12
- IC50 [3]: > 5000 nM
- IC50 [8]: > 5000 nM

- IC50 [3]: 30 nM
- IC50 (MDA-MB-435 [11]): 2040 nM
- IC50 [8]: > 5000 nM
SMILES: CC(=O)c1c(C)c2cnc(Nc3ccc(N4C(C)COCC4C)cn3)nc2n(C2CCCC2)c1=O (stereo unspecified)

- IC50 (MDA-MB-468 [12]): 1100 nM
- IC50 (MDA-MB-435 [11]): 30 nM
- IC50 [8]: 230 nM
SMILES: CC(=O)c1c(C)c2cnc(Nc3ccc(N4CCNCC4)cc3)nc2n(C2CCCC2)c1=O
